Where two headings read alike, the source gives them in different places.
What was measured:
Assay in all cases: biochemical
[1] = biological target: mTOR/FKBP12(h) (Homo sapiens, UniProt P42345); parameters: Eurofins KinaseProfiler full panel at Km ATP, residual kinase activity (%) relative to DMSO
Procedure, shortened: (§1)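 Two 10 µM single-concentration screens were run: a competition-binding screen, in which DNA-tagged kinase bound to immobilized ligands was quantified by qPCR, and a radiometric activity panel at Km ATP. Each is expressed as residual kinase activity (%).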

[2] = biological target: T1, Tec(h) activated (Homo sapiens, UniProt P42680); parameters: Eurofins KinaseProfiler full panel at Km ATP, residual kinase activity (%) relative to DMSO
T1 sequence (P42680 1-631): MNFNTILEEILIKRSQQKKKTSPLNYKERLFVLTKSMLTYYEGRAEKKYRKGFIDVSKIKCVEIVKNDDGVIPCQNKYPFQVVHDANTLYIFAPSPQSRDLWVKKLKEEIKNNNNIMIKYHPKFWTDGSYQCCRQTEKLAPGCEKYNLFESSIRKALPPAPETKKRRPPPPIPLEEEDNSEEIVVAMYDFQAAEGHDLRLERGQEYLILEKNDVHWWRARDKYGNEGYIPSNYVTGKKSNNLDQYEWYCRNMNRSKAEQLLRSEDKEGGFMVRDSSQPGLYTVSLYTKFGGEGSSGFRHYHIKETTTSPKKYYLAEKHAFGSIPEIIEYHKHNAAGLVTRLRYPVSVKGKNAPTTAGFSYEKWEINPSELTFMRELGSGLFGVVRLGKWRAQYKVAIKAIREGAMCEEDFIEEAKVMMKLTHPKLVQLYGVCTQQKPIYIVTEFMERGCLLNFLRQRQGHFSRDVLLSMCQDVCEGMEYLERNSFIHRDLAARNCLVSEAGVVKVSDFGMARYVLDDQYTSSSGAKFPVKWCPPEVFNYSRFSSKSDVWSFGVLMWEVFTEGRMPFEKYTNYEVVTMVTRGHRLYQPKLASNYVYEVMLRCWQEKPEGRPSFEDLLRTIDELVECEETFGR
Procedure, shortened: as §1

[3] = biological target: CDK13/cyclinK(h) (Homo sapiens, UniProt Q14004); parameters: Eurofins KinaseProfiler full panel at Km ATP, residual kinase activity (%) relative to DMSO
Procedure, shortened: as §1

[4] = biological target: T2, LKB1(h) (Homo sapiens, UniProt Q15831); parameters: Eurofins KinaseProfiler full panel at Km ATP, residual kinase activity (%) relative to DMSO
T2 construct: gene STK11
T2 sequence (Q15831 1-433): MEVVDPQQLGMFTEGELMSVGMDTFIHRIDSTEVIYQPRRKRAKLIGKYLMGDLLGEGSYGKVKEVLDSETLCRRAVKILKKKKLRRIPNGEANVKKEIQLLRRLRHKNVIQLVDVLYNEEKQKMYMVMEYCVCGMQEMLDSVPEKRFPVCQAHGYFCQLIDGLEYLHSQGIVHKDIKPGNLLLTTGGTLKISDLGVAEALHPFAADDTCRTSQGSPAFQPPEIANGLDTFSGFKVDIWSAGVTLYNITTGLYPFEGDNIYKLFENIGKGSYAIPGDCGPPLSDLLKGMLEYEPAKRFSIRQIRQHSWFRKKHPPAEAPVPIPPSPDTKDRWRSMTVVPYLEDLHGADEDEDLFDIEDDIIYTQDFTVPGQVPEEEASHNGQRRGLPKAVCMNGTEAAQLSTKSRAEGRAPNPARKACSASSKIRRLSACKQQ
T2 sequence (Q7RTN6 1-431 partner): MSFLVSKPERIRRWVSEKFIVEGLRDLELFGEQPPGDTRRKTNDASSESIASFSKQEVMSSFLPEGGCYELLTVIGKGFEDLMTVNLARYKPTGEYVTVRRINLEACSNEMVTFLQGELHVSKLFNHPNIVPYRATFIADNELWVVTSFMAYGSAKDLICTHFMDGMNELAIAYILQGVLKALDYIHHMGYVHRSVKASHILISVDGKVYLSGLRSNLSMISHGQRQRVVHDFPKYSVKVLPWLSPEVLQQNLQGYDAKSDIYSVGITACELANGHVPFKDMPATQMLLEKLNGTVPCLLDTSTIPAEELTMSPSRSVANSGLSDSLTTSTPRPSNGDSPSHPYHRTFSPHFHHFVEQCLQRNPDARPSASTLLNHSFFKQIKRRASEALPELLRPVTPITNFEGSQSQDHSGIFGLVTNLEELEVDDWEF
T2 sequence (Q9Y376 1-341 partner): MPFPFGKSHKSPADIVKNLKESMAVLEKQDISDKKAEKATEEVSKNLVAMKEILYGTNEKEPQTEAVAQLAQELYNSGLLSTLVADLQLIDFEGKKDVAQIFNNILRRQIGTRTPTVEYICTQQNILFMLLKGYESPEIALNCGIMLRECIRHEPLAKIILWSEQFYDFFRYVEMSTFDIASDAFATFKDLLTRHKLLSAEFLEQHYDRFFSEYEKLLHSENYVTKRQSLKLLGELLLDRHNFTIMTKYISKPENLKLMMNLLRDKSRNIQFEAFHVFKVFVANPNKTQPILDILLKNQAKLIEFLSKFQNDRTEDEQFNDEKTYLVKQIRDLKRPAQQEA
Procedure, shortened: as §1

[5] = biological target: T3, MLCK(h) (Homo sapiens, UniProt Q15746); parameters: Eurofins kinase panel, residual kinase activity (%) at 10 uM relative to DMSO
T3 construct: gene MYLK
Method: Eurofins performed a “Full KP Panel [Km ATP], KinaseProfile” which contains 429 radiometric kinase activity assays. The remaining kinase activity (%) was determined after treatment with the compounds at a concentration of 10 µM (Cfr. supporting information). Since we could not confirm the interaction between Spautin-1 analogues and USP13, a kinase screening was performed using a set of four compounds (Spautin-1 and three analogues) to discover off-targets and identify kinases that are potentially responsible for the reduction in cell viability observed in our screen (Table 2). The KINOMEscan from Eurofins was performed (see Table S1). This screen consists of a competitive binding assay in which the DNA-tagged kinase is incubated with one of the compounds in the presence of immobilized active site binding ligands. Binding of the compounds to the kinase hampers the binding of the kinase to the ligands and this inhibition was quantified by qPCR.

[6] = read-out: Residual activity (%) Spautin-1 5aa
[7] = read-out: Residual activity (%) 5as
[8] = read-out: Residual activity (%) 5at
[9] = read-out: Residual activity (%) 5ay

T3 sequence (Q15746 whole entry): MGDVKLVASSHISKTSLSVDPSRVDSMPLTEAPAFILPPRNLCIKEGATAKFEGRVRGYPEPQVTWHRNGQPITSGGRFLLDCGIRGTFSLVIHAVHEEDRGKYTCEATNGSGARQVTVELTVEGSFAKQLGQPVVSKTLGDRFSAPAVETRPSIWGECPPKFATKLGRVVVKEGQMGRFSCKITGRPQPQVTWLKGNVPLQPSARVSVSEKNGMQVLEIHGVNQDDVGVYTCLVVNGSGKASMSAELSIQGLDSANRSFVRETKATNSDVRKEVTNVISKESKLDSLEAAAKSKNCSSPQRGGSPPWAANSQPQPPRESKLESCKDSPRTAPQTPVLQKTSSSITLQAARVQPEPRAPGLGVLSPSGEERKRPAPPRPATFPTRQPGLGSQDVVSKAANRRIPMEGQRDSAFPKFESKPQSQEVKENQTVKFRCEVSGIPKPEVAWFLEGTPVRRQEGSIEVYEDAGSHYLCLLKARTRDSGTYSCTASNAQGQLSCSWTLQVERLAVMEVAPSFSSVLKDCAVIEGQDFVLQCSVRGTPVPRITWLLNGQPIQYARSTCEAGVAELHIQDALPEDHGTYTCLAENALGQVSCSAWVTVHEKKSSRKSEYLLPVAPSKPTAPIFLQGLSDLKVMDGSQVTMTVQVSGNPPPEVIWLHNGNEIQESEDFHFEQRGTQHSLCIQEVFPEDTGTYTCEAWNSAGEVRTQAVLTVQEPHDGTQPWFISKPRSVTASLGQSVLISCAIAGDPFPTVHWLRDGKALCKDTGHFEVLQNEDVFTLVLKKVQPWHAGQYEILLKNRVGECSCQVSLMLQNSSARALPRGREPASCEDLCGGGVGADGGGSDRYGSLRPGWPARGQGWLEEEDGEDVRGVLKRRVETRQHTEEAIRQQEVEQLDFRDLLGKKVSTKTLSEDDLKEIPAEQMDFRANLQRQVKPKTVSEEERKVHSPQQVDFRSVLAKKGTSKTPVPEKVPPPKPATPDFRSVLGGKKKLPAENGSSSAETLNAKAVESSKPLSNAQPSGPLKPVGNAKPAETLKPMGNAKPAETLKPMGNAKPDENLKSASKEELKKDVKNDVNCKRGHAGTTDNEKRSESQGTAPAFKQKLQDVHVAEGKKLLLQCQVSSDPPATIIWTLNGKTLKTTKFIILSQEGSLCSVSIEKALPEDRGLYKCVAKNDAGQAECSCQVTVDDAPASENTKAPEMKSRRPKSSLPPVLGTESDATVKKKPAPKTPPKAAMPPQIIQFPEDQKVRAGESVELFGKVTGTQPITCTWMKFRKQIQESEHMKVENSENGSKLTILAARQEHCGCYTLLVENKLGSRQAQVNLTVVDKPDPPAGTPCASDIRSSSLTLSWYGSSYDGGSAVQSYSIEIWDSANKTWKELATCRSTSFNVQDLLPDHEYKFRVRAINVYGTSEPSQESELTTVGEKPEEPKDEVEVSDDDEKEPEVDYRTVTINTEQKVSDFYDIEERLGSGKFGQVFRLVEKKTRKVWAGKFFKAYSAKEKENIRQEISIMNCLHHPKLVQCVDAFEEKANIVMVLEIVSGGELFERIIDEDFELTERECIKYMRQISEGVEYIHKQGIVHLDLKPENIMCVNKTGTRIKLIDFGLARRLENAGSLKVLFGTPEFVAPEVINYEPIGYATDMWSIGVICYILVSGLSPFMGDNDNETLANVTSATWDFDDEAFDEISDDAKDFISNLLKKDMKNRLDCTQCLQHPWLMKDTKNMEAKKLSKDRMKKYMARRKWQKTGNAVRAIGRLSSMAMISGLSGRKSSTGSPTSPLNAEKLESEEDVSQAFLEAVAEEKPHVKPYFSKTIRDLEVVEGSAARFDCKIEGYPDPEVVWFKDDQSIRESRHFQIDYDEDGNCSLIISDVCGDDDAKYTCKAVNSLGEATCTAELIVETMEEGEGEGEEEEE
Chain of CDK13/cyclinK(h) (Q14004 whole entry): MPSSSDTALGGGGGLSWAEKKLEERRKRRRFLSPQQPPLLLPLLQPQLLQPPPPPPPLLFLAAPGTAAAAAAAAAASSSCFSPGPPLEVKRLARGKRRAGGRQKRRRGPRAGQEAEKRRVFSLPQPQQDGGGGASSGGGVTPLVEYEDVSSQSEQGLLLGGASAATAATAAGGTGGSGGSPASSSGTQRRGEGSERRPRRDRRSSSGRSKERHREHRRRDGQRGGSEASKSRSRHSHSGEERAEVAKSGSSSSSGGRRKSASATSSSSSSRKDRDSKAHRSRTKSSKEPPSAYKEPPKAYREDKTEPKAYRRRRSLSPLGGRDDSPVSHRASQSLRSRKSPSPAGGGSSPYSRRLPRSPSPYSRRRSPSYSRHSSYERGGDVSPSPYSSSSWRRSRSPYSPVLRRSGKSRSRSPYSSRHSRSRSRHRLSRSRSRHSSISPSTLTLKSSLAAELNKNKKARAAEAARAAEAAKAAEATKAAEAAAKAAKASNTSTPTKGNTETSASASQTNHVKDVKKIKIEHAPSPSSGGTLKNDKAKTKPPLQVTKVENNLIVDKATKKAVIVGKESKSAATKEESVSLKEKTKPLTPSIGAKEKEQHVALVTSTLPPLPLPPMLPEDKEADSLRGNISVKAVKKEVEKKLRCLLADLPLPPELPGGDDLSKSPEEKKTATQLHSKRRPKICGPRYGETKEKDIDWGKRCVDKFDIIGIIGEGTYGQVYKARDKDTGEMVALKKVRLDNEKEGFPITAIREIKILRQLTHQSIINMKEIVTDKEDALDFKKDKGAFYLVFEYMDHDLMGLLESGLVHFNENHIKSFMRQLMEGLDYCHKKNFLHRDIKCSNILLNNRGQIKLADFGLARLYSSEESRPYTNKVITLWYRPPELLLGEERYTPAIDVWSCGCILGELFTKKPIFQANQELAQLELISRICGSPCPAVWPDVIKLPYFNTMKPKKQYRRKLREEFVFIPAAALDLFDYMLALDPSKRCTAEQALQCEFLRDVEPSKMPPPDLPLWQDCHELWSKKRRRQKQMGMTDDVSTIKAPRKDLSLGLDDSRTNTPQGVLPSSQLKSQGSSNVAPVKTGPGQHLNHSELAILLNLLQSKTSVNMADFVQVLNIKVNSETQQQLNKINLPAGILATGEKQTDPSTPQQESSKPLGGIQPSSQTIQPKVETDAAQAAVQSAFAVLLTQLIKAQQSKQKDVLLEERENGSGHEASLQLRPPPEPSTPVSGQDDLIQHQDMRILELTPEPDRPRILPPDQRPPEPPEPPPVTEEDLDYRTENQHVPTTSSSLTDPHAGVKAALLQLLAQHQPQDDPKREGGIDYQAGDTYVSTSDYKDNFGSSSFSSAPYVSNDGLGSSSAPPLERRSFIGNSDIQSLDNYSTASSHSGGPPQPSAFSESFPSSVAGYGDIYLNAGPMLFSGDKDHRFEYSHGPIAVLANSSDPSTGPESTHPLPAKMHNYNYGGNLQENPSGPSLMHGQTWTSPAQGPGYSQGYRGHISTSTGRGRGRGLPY
Chain of CDK13/cyclinK(h) (O75909 whole entry partner): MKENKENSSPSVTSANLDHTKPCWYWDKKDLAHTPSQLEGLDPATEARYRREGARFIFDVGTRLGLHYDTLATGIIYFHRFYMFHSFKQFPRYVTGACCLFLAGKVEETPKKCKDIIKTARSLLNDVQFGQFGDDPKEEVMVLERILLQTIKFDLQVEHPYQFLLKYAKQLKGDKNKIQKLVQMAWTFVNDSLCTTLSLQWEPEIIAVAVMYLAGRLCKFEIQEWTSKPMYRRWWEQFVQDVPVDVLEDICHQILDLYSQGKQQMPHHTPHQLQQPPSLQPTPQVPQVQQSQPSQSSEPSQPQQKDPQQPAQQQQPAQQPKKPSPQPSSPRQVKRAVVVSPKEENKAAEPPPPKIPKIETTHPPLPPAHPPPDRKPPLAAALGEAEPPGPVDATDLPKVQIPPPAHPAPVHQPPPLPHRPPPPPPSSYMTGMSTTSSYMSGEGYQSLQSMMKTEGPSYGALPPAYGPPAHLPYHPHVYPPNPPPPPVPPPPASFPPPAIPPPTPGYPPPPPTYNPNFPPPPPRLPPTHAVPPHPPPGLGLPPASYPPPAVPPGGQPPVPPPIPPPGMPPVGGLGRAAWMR

Compound `Fc1ccc(CNc2ncnc3ccc(F)cc23)cc1` [5aa, 6-Fluoro-N-(4-fluorobenzyl)-4-Quinazolinamine] has a remaining activity at 10 µM [1, 6] of 100%, a remaining activity at 10 µM [2, 6] of 78% and a remaining activity at 10 µM [3, 6] of 75%. It also gave a remaining activity at 10 µM [4, 6] of 86% and a remaining activity at 10 µM ([5]; read-out: Residual activity (%) Spautin-1) of 83%.
With `Fc1ccc(CCNc2ncnc3ccc(F)cc23)cc1` [5as, 6-Fluoro-N-[2-(4-Fluorophenyl)Ethyl]-4-Quinazolinamine] the remaining activity at 10 µM [1, 7] was 89%, the remaining activity at 10 µM [2, 7] was 100% and the remaining activity at 10 µM [3, 7] was 35%. The remaining activity at 10 µM [4, 7] was 81% and the remaining activity at 10 µM [5, 7] was 88%.
`Fc1ccc2ncnc(NCCc3ccc(Cl)cc3)c2c1` [5at, N-[2-(4-Chlorophenyl)Ethyl]-6-Fluoro-4-Quinazolinamine] gave a remaining activity at 10 µM [1, 8] of 94%, a remaining activity at 10 µM [2, 8] of 86% and a remaining activity at 10 µM [3, 8] of 114%. It also gave a remaining activity at 10 µM [4, 8] of 73% and a remaining activity at 10 µM [5, 8] of 86%.
With `COc1ccc2ncnc(Nc3cccc(F)c3)c2c1` [5ay, N-(3-Fluorophenyl)-6-Methoxy-4-Quinazolinamine] the remaining activity at 10 µM [1, 9] was 88%, the remaining activity at 10 µM [2, 9] was 76% and the remaining activity at 10 µM [3, 9] was 105%. The remaining activity at 10 µM [4, 9] was 100% and the remaining activity at 10 µM [5, 9] was 69%.
